Assay: Water solubility of solid halogenated hydantoins and halogen dissolved in a saturated solution
Format: physicochemical
Details: Table II; for Saturated Solution, amount of halogen dissolved: saturated solution in water

SMILES	Saturated Solution, amount of halogen dissolved [mg/L as Cl2]	Solubility (water) [%]
CC1(C)C(=O)N(Cl)C(=O)N1Br [Bromo-chlorodimethylhydantoin, bromochlorodimethylhydantoin]	825	0.15
CC1(C)C(=O)N(Br)C(=O)N1Br [Dibromodimethylhydantion, 1,3-dibromo-5,5-dimethylhydantoin]	542	

Reference: US5641520A, “Halogen compositions for water treatment” (priority 1995, dated 1997)
